Data reported in patent US20060009918A1, “Methods and materials for enhancing the effects of protein modulators” (priority 2004, published 2006).

Target: T1, carbonic anhydrase (bovine erythrocyte, Sigma Chemical Company, mixture of isozymes) (Bos taurus, UniProt P00921)
T1 construct: purchased Sigma Chemical Company; host or cells: bovine erythrocyte
Test: Binding constants by isothermal titration calorimetry
Method: The binding constants of these complexes with carbonic anhydrase (bovine erythrocyte, Sigma Chemical Company, mixture of isozymes) were determined employing isothermal titration calorimetry (25 mM HEPES buffer, pH=7.0), and the results are presented in Table 1.
The titration procedures employing isothermal titration calorimetry were carried out employing the instrument ITC-4200 (Calscorp Inc., Provo, Utah). The reference cell (volume: 1.32 mL) was filled with 25 mM HEPES buffer, pH=7.0. Carbonic anhydrase was taken in the sample cell (1.32 mL, […] protein in 25 mM HEPES buffer, pH=7.0). The copper complexes (1 mM) were dissolved in the same buffer and were added to the enzyme solution (42×5 μL injections). Heats of dilution for the complexes were separately determined by injecting the solution of the complexes in buffer (taken in the sample cell). The heats of dilution were subtracted from the titration data files, and the resultant data were processed by the software provided by the manufacturer (Bind Works 3.0).

[1] = isothermal titration calorimetry, 25 mM HEPES buffer, pH=7.0

T1 sequence (P00921 2-260 limits assumed): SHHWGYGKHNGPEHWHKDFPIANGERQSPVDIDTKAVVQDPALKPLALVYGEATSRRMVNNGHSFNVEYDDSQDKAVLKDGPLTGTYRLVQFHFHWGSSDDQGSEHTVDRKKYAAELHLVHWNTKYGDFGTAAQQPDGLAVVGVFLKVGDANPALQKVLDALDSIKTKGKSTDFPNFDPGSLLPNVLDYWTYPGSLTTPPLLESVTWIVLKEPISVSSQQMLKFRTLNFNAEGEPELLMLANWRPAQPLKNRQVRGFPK

## NS(=O)(=O)c1ccccc1 [Control 6, Benzene sulfonamide, reference compound]
Carbonic anhydrase, summary statement
  Kd: 120 µM
[1]
  Binding constant: (9.0 ± 0.1) × 10^3
  Enthalpy: -31.2 ± 1.6 kcal/mol
Titration with the enzyme
  affinity for the enzyme (in words): weak affinity
